Source: US11071721B2, “Bicyclic amide compounds and methods of use thereof” (Genentech, Inc., priority 2016, dated 2021)

Molecular target: human RIP1 kinase domain (2-375) (Homo sapiens (Human), UniProt Q13546)
Experiment: RIP1 kinase inhibition assay (Transcreener ADP biochemical enzyme assay)
Settings: Ki app (Morrison tight-binding fit); 50 nM enzyme, 50 uM ATP, 2 hours incubation, fluorescence polarization
Protocol: RIP1 Kinase Inhibition Assays (Biochemical Assay):
The compounds of the present invention were tested for their capacity to inhibit RIP K activity as described below.
Enzyme assay: The ability of the receptor interacting protein kinase (RIPK1) to catalyze the hydrolysis of adenosine-5′-triphosphate (ATP) is monitored using the Transcreener ADP (adenosine-5′-diphosphate) assay (BellBrook Labs). Purified human RIP1 kinase domain (2-375) (50 nM) derived from a baculovirus-infected insect cell expression system is incubated with test compounds for 2 hours in 50 mM Hepes buffer (pH 7.5) containing 30 mM MgCl2, 1 mM dithiothreitol, 50 uM ATP, 0.002% Brij-35, and 0.5% dimethyl sulfoxide (DMSO). Reactions are quenched by the addition of 1× Bell Brooks Stop buffer B (20 mM Hepes (ph7.5), 40 mM ethylenediaminetetraacetic acid and 0.02% Brij-35) containing an additional 12 mM EDTA and 55 ug/mL ADP2 antibody and 4 nM ADP-AlexaFluor® 633 tracer. The tracer bound to the antibody is displaced by the ADP generated during the RIP1K reaction, which causes a decrease in fluorescence polarization that is measured by laser excitation at 633 nm with a FP microplate reader M1000. Fractional activity was plotted against test article concentration. Using Genedata Screener software (Genedata; Basel, Switzerland), the data were fit to the tight-binding apparent inhibition constant (Ki^app) Morrison equation [Williams, J. W. and Morrison, J. F. (1979) The kinetics of reversible tight-binding inhibition. Methods Enzymol 63: 437-67]. The following equation was used to calculate fractional activity and Ki^app:
[formula] where [E]T and [I]T are the total concentrations of active enzyme and test article, respectively.

human RIP1 kinase domain (2-375), sequence (Q13546 2-375): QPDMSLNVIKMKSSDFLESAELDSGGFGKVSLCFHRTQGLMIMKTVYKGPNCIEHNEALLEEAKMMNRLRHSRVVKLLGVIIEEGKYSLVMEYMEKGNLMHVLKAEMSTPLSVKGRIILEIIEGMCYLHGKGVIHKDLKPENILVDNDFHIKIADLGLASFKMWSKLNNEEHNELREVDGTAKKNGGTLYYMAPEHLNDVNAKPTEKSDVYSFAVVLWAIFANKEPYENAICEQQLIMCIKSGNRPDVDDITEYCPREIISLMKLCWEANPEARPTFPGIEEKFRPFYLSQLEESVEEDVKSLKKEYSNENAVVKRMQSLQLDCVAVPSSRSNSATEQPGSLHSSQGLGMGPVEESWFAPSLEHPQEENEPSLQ

Point of comparison: `CN(C)C(=O)c1nc2n(n1)CCOC2c1ccccc1F` (racemic) [Example 43, 8-(2-fluorophenyl)-N,N-dimethyl-6,8-dihydro-5H-[1,2,4]triazolo[5,1-c][1,4]oxazine-2-carboxamide], Ki 5000 nM. Against it:
- COCCN(CC(F)(F)F)C(=O)c1nc2n(n1)[C@H](c1ccccc1)C[C@@H]2F (racemic) [Example 55, rac-(5S,7S)-7-fluoro-N-(2-methoxyethyl)-5-phenyl-N-(2,2,2-trifluoroethyl)-6,7-dihydro-5H-pyrrolo[1,2-b][1,2,4]triazole-2-carboxamide] — within 1.5-fold, 3900 nM
- O=C(c1nc2n(n1)[C@H](c1ccccc1)C[C@@H]2F)N(C1CC1)C1CC1 (racemic) [Example 61, rac-(5S,7S)-N,N-dicyclopropyl-7-fluoro-5-phenyl-6,7-dihydro-5H-pyrrolo[1,2-b] [1,2,4]triazole-2-carboxamide] — 1.6-fold lower, 3200 nM
- O=C(c1cc2n(n1)CCOC2c1ccccc1F)N1CC(F)(F)C1 (racemic) [Example 37, (3,3-difluoroazetidin-1-yl)-[4-(2-fluorophenyl)-6,7-dihydro-4H-pyrazolo[5,1-c][1,4]oxazin-2-yl]methanone] — 3.6-fold lower, 1400 nM
- O=C(c1nc2n(n1)C(c1ccccc1F)CC2)N1CCC1 (racemic) [Example 22, Azetidin-1-yl-[5-(2-fluorophenyl)-6,7-dihydro-5H-pyrrolo[1,2-b][1,2,4]triazol-2-yl]methanone] — 9.8-fold lower, 511 nM
- C[C@H]1[C@@H](C(F)(F)F)CCN1C(=O)c1nc2n(n1)[C@H](c1ccccc1)C[C@@H]2F (single isomer, unassigned) [Example 86] — 1000-fold lower, 5 nM
- O=C(c1nc2n(n1)[C@H](c1ccccc1)C[C@@H]2F)N1CC(F)(F)C1 [Example 3, (3,3-difluoroazetidin-1-yl)-[(5S,7S)-7-fluoro-5-phenyl-6,7-dihydro-5H-pyrrolo[1,2-b][1,2,4]triazol-2-yl]methanone] — 560-fold lower, 9 nM
- CC1c2c(F)cccc2CCN1C(=O)c1nc2n(n1)[C@H](c1ccccc1)C[C@@H]2F (mixture of isomers) [Example 96, (8-fluoro-1-methyl-3,4-dihydro-1H-isoquinolin-2-yl)-[rac-(5S,7S)-7-fluoro-5-phenyl-6,7-dihydro-5H-pyrrolo[1,2-b][1,2,4]triazol-2-yl]methanone] — 88-fold lower, 57 nM
- O=C(c1cc2n(n1)CC[C@@H]2c1ccccc1)N1CC(F)(F)C1 [Example 9, (3,3-difluoroazetidin-1-yl)-[(4R)-4-phenyl-5,6-dihydro-4H-pyrrolo[1,2-b]pyrazol-2-yl]methanone] — 1.9-fold lower, 2660 nM
- O=C(c1nc2n(n1)[C@@H](c1ccccc1)C[C@H]2F)N1CCC[C@H]1C(F)F (racemic) [Example 64, [rac-(2S)-2-(difluoromethyl)pyrrolidin-1-yl]-[rac-(5R,7R)-7-fluoro-5-phenyl-6,7-dihydro-5H-pyrrolo[1,2-b][1,2,4]triazol-2-yl]methanone] — 1200-fold lower, 4 nM
- O=C(c1nc2n(n1)[C@H](c1ccccc1)C[C@@H]2F)N1CCC[C@H]1C(F)(F)F (racemic) [Example 82, [rac-(5S,7S)-7-fluoro-5-phenyl-6,7-dihydro-5H-pyrrolo[1,2-b][1,2,4]triazol-2-yl]-[rac-(2S)-2-(trifluoromethyl)pyrrolidin-1-yl]methanone] — 11-fold lower, 450 nM
- O=C(c1nc2n(n1)CC[C@H]2c1ccccc1)N1CC(F)(F)C1 (single isomer, unassigned) [Example 15] — 76-fold lower, 66 nM
- O=C(c1nc2n(n1)CCOC2c1ccccc1F)N1CC(F)C1 (racemic) [Example 45, (3-fluoroazetidin-1-yl)-[8-(2-fluorophenyl)-6,8-dihydro-5H-[1,2,4]triazolo[5,1-c][1,4]oxazin-2-yl]methanone] — 2.2-fold lower, 2300 nM
- O=C(c1nc2n(n1)C(c1ccccc1)CC2(F)F)N1CC(F)(F)C1 (racemic) [Example 1, (3,3-difluoroazetidin-1-yl)-(7,7-difluoro-5-phenyl-5,6-dihydropyrrolo[1,2-b][1,2,4]triazol-2-yl)methanone] — 88-fold lower, 57 nM
- CC1(F)CN(C(=O)c2nc3n(n2)[C@@H](c2ccccc2)CC3(F)F)C1 (single isomer, unassigned) [Example 38] — 100-fold lower, 48 nM
- O=C(c1nc2n(n1)[C@H](c1ccccc1)C[C@@H]2F)N(CC(F)(F)F)C1COC1 (racemic) [Example 57, rac-(5S,7S)-7-fluoro-N-(oxetan-3-yl)-5-phenyl-N-(2,2,2-trifluoroethyl)-6,7-dihydro-5H-pyrrolo[1,2-b][1,2,4]triazole-2-carboxamide] — 9.8-fold lower, 510 nM
- CC1CN(C(=O)c2nc3n(n2)C(c2ccccc2)CC3)C1 (racemic) [Example 19, (3-methylazetidin-1-yl)-(5-phenyl-6,7-dihydro-5H-pyrrolo[1,2-b][1,2,4]triazol-2-yl)methanone] — 11-fold lower, 465 nM
- O=C(c1nc2n(n1)C(c1ccccc1)CC2)N1CCC1 (racemic) [Example 26, azetidin-1-yl-(5-phenyl-6,7-dihydro-5H-pyrrolo[1,2-b][1.2.4]triazol-2-yl)methanone] — 9.4-fold lower, 530 nM
- O=C(c1nc2n(n1)[C@@H](c1ccccc1)CC2(F)F)N1CC(F)(F)C1 (single isomer, unassigned) [Example 1b] — higher, > 10000 nM
- O=C(c1nc2n(n1)[C@H](c1ccccc1)CC2)N1CC(F)(F)C1 (stereo in doubt) [Example 31, (3,3-difluoroazetidin-1-yl)-[rac-(5S)-5-phenyl-6,7-dihydro-5H-pyrrolo[1,2-b][1,2,4]triazol-2-yl]methanone] — within 1.5-fold, 7100 nM
- CN(C(=O)c1nc2n(n1)[C@H](c1ccccc1)C[C@@H]2F)c1ccccc1 (racemic) [Example 90, rac-(5S,7S)-7-fluoro-N-methyl-N,5-diphenyl-6,7-dihydro-5H-pyrrolo[1,2-b][1,2,4]triazole-2-carboxamide] — 8.1-fold lower, 620 nM
- O=C(c1nc2n(n1)[C@@H](c1ccccc1F)CC2)N1CCC1 (single isomer, unassigned) [Example 12] — 36-fold lower, 137 nM
- O=C(c1nc2n(n1)[C@@H](c1ccccc1)CC2(F)F)N1CC(F)(F)C1 (single isomer, unassigned) [Example 1a] — 620-fold lower, 8 nM
- O=C(c1nc2n(n1)[C@H](c1ccccc1F)CC2)N1CC(F)(F)C1 (single isomer, unassigned) [Example 10] — higher, > 10000 nM
- O=C(c1nc2n(n1)[C@H](c1ccccc1)C[C@@H]2F)N1CCc2cccc(F)c2C1 (racemic) [Example 95, (8-fluoro-3,4-dihydro-1H-isoquinolin-2-yl)-[rac-(5S,7S)-7-fluoro-5-phenyl-6,7-dihydro-5H-pyrrolo[1,2-b][1,2,4]triazol-2-yl]methanone] — 280-fold lower, 18 nM
- O=C(c1nc2n(n1)[C@@H](c1ccccc1)C[C@H]2F)N1CCc2ccccc2C1 (stereo in doubt) [Example 76] — 160-fold lower, 31 nM
- O=C(c1nc2n(n1)[C@@H](c1ccccc1)C[C@H]2F)N1CC2CC2C1 (mixture of isomers) [Example 101, 3-azabicyclo[3.1.0]hexan-3-yl-[rac-(5R, 7R)-7-fluoro-5-phenyl-6,7-dihydro-5H-pyrrolo[1,2-b][1,2,4]triazol-2-yl] methanone] — 61-fold lower, 82 nM
- O=C(c1nc2n(n1)[C@H](C(F)(F)F)CC2)N1CC(F)(F)C1 (racemic) [Example 49, (3,3-difluoroazetidin-1-yl)-[rac-(5S)-5-(trifluoromethyl)-6,7-dihydro-5H-pyrrolo[1,2-b][1,2,4]triazol-2-yl]methanone] — the same, 5000 nM
